Assay results from PMC10648852, “Molecular drivers of resistance to sulbactam-durlobactam in contemporary clinical isolates of Acinetobacter baumannii” (Antimicrobial Agents and Chemotherapy, 2023).
“And” between values parts separate entries of the source, which are not always exact repeats. Equal values may be shown once. Read-outs that look alike come from different tables or passages of the source.

Tests used:
[1] = test system: A. baumannii PBP3 S395F; assay: Acylation rate constant (kinact/Ki), fluorescence anisotropy competition with BOCILLIN; conditions: variant data from McLeod et al. (2018)
[2] = test system: A. baumannii PBP3 H370Y; assay: as above; conditions: for k inact/K i: average ± SD
[3] = test system: isogenic A. baylyi ADP1 panel encoding wildtype or mutant PBP3; assay: Broth microdilution MIC, isogenic A. baylyi panel (PBP3 variants with or without overexpressed β-lactamases); assay type: cell-based; conditions: for increase in MIC values in the presence of β-lactamase: wildtype PBP3 strain
Method: To understand the effect of PBP3 variants on whole cell activity in the absence of other resistance determinants, the MIC values of sulbactam, SUL-DUR and comparator β-lactams were measured against an isogenic A. baylyi panel engineered to contain individual strains in which the endogenous PBP3 was replaced with the variant of interest.
Each of the A. baylyi panel members were then transformed with plasmids that constitutively expressed five distinct, representative β-lactamases commonly found in Acinetobacter clinical isolates (TEM-1, ADC-30, OXA-23, OXA-24 or OXA-66) and evaluated for changes in antibiotic susceptibility. […] . […] .
The isogenic A. baylyi panel used for chromosomal expression of various PBP3 mutants with or without constitutive expression of various β-lactamases were constructed as part of this study. The A. baylyi ADP1 PBP3 ORF was cloned into pUC19 with a gentamicin cassette inserted downstream of the PBP3 ORF for selection purposes. Additionally, 500 bp of flanking homology to the ADP1 genome were inserted upstream of the PBP3 ORF and downstream of the gentamicin cassette. […] Linear DNA consisting of the 500 bp upstream-PBP3-Gent-500 bp downstream fragment was cloned out of the pUC19 plasmid by PCR and used for transformation of the ADP1 strain. The strain was grown at 30°C overnight in LB medium shaking at 250 rpm. Seventy microliters of the overnight ADP1 culture were combined with 1 mL of fresh LB and 200 ng of linear DNA fragment and incubated for 5 h at 30°C and shaking at 200 rpm. Various dilutions of each culture were plated on LB agar supplemented with 10 µg/mL of gentamicin to select for transformants with successful chromosomal integrations. Integrants were verified by Sanger sequencing using purified genomic DNA.
For the constitutive expression of various β-lactamases, ORFs of bla TEM-1, bla ADC-30, bla OXA-23, bla OXA-24, and bla OXA-66 were cloned by PCR from various clinical strains that encode these genes and inserted into the pWH1266 plasmid modified to encode a kanamycin cassette for selection. These plasmids along with an empty vector were used to transform each of the A. baylyi ADP1 strains engineered above that encode wild-type PBP3 or variants. Transformations were carried out as done above with selection on LB agar supplemented with 20 µg/mL of kanamycin.
(§1) Antimicrobial susceptibility testing was performed using broth microdilution following standardized methods established by the Clinical Laboratory Standards Institute (CLSI) ([35], [36]). Quality control testing was performed as specified by CLSI using A. baumannii NCTC 13304 ([35]). MIC values were interpreted using CLSI breakpoints for all antimicrobial agents except those for which CLSI breakpoints are not available ([35]). SUL-DUR was tested as twofold dilutions of sulbactam in combination with a fixed concentration of 4 µg/mL durlobactam ([35]).

[4] = test system: A. baumannii PBP3 N377Y; assay: Acylation rate constant (kinact/Ki), fluorescence anisotropy competition with BOCILLIN; conditions: for k inact/K i: average ± SD
[5] = test system: A. baumannii PBP3 Q488K; assay: as above; conditions: for k inact/K i: average ± SD
[6] = test system: A. baumannii PBP3 N392T; assay: as above; conditions: for k inact/K i: average ± SD
[7] = test system: A. baumannii PBP3 S390T; assay: as above; conditions: variant data from McLeod et al. (2018)
[8] = test system: A. baumannii KAB1544 and efflux overexpression mutants; assay: Broth microdilution MIC, isogenic A. baumannii overexpression efflux mutants; assay type: cell-based; conditions: for MIC: Acinetobacter baumannii
Method: (§2) To further assess the role of efflux in SUL-DUR activity against Acinetobacter spp., two panels of A. baumannii isogenic strains were tested. The first consisted of 7 members of an A. baumannii transposon library ([28]) with single gene disruptions in the adeABC, adeIJK, or adeT loci as compared to the parent strain, AB5075. […] This panel of strains consists of four different point mutants in AdeR and five different point mutants in AdeS, which result in the upregulation of AdeABC expression. In addition, this panel contains chromosomal deletions of adeL and adeN, which result in overexpression of AdeFGH and AdeIJK, respectively ([29]).
In contrast, sulbactam, SUL-DUR, and imipenem MIC values were unaffected by these mutants (Table 4).
(§3) The AB5075 parent strain as well as transposon interrupted AdeABC, AdeIJK, and AdeT were purchased from the Manoil laboratory at the University of Washington from their arrayed transposon mutant collection ([28]). The KAB1544 parent as well as efflux pump regulator mutants and deletions were constructed as previously described ([29]).
as §1

[9] = test system: A. baumannii AB5075 and transposon mutants in efflux genes; assay: Broth microdilution MIC, isogenic A. baumannii transposon mutants in efflux genes; assay type: cell-based; conditions: for In vitro activity (MIC): tested in duplicate
Method: as §2
The parent and each isogenic mutant strain in both panels was measured for susceptibility to sulbactam, durlobactam, SUL-DUR, imipenem, and gentamicin. […].
as §3, §1

[10] = Acinetobacter baylyi, A. baylyi, PBP3 H370Y, overexpressed ADC-30
[11] = Acinetobacter baylyi, A. baylyi, PBP3 H370Y, overexpressed OXA-23
[12] = Acinetobacter baylyi, A. baylyi, PBP3 H370Y, overexpressed OXA-24
[13] = Acinetobacter baylyi, A. baylyi, PBP3 H370Y, overexpressed OXA-66
[14] = Acinetobacter baylyi, A. baylyi, PBP3 H370Y, overexpressed TEM-1
[15] = Acinetobacter baylyi, A. baylyi, PBP3 H370Y, β-lactamase None (empty vector)
[16] = Acinetobacter baylyi, A. baylyi, PBP3 Wildtype, overexpressed ADC-30, read-out: MIC
[17] = Acinetobacter baylyi, A. baylyi, PBP3 Wildtype, overexpressed OXA-23, read-out: MIC
[18] = Acinetobacter baylyi, A. baylyi, PBP3 Wildtype, overexpressed OXA-24, read-out: MIC
[19] = Acinetobacter baylyi, A. baylyi, PBP3 Wildtype, overexpressed OXA-66, read-out: MIC
[20] = Acinetobacter baylyi, A. baylyi, PBP3 Wildtype, overexpressed TEM-1, read-out: MIC
[21] = Acinetobacter baylyi, A. baylyi, PBP3 Wildtype, β-lactamase None (empty vector), read-out: MIC

Q: `C[C@@H](O)[C@H]1C(=O)N2C(C(=O)O)=C(S[C@@H]3CN[C@H](C(=O)N(C)C)C3)[C@H](C)[C@H]12` [meropenem] was tested. Which “% WT” value [1] did it give?
A: 30%

Q: And the “% WT” value [2]?
A: 120%

Q: What about the “k inact/K i” value [2] of the same compound?
A: 6,000 ± 10 ([2]) M^-1s^-1

Q: What about the MIC [3, 10] of the same compound?
A: 0.06 µg/mL

Q: What about the MIC [3, 11] of the same compound?
A: 8 µg/mL

Q: What about the MIC [3, 12] of the same compound?
A: > 8 µg/mL

Q: What about the MIC [3, 13] of the same compound?
A: 0.5 µg/mL

Q: What about the MIC [3, 14] of the same compound?
A: 0.06 µg/mL

Q: And the MIC [3, 15]?
A: 0.06 µg/mL

Q: And the MIC [3, 16]?
A: 0.13 µg/mL

Q: And the MIC [3, 17]?
A: 8 µg/mL

Q: And the MIC [3, 18]?
A: > 8 µg/mL

Q: And the MIC [3, 19]?
A: 1 µg/mL

Q: What about the MIC [3, 20] of the same compound?
A: 0.13 µg/mL

Q: What about the MIC [3, 21] of the same compound?
A: 0.06 µg/mL

Q: And the “increase in MIC values in the presence of β-lactamase” value ([3]; OXA-23, OXA-24 and OXA-66)?
A: ≥ 4 fold

Q: And the “% WT” value [4]?
A: 74%

Q: What about the “k inact/K i” value [4] of the same compound?
A: 3,700 ± 300 ([2]) M^-1s^-1

Q: And the “% WT” value [5]?
A: 78%

Q: What about the “k inact/K i” value [5] of the same compound?
A: 3,900 ± 200 ([2]) M^-1s^-1

Q: And the “% WT” value [6]?
A: 164%

Q: And the “k inact/K i” value [6]?
A: 8,200 ± 200 ([2]) M^-1s^-1

Q: Which “% WT” value [7] does the source give for `CC1(C)[C@H](C(=O)O)N2C(=O)C[C@H]2S1(=O)=O` [sulbactam] here?
A: 0.2%

Q: What about the “% WT” value [1] of the same compound?
A: 4.2%

Q: And the “% WT” value [2]?
A: ~ 120% and 126%

Q: What about the “k inact/K i” value [2] of the same compound?
A: 19 ± 2 ([2]) M^-1s^-1

Q: And the “% WT” value ([2]; listed as Sulbactam)?
A: 126.7%

Q: What about the MIC [3, 10] of the same compound?
A: 2 µg/mL

Q: What about the MIC [3, 11] of the same compound?
A: > 64 µg/mL

Q: What about the MIC [3, 12] of the same compound?
A: > 64 µg/mL

Q: What about the MIC [3, 13] of the same compound?
A: 4 µg/mL

Q: And the MIC [3, 14]?
A: 4 µg/mL

Q: And the MIC [3, 15]?
A: 8 µg/mL

Q: What about the MIC [3, 16] of the same compound?
A: 2 µg/mL

Q: And the MIC [3, 17]?
A: > 64 µg/mL

Q: What about the MIC [3, 18] of the same compound?
A: 16 µg/mL

Q: What about the MIC [3, 19] of the same compound?
A: 8 µg/mL

Q: And the MIC [3, 20]?
A: 16 µg/mL

Q: And the MIC [3, 21]?
A: 4 µg/mL

Q: And the “increase in MIC values in the presence of β-lactamase” value ([3]; TEM-1, OXA-23 and OXA-24)?
A: ≥ 4 fold

Q: What about the MIC ([3]; {}) of the same compound?
A: >64 µg/mL

Q: What about the MIC ([8]; AdeR A91V, AdeABC overexpressed, read-out: MIC) of the same compound?
A: 1 µg/mL

Q: And the MIC ([8]; AdeR D20N, AdeABC overexpressed, read-out: MIC)?
A: 1 µg/mL

Q: What about the MIC ([8]; AdeR E219A, AdeABC overexpressed, read-out: MIC) of the same compound?
A: 2 µg/mL

Q: And the MIC ([8]; AdeR P116L, AdeABC overexpressed, read-out: MIC)?
A: 1 µg/mL

Q: What about the MIC ([8]; AdeS A94V, AdeABC overexpressed, read-out: MIC) of the same compound?
A: 1 µg/mL

Q: What about the MIC ([8]; AdeS G30D, AdeABC overexpressed, read-out: MIC) of the same compound?
A: 1 µg/mL

Q: What about the MIC ([8]; AdeS G103D, AdeABC overexpressed, read-out: MIC) of the same compound?
A: 2 µg/mL

Q: What about the MIC ([8]; AdeS R152K, AdeABC overexpressed, read-out: MIC) of the same compound?
A: 1 µg/mL

Q: And the MIC ([8]; AdeS T153M, AdeABC overexpressed, read-out: MIC)?
A: 1 µg/mL

Q: What about the MIC ([8]; Parent (KAB1544), no efflux pump overexpressed, read-out: MIC) of the same compound?
A: 2 µg/mL

Q: And the MIC ([8]; ΔadeL, AdeFGH overexpressed)?
A: 1 µg/mL

Q: And the MIC ([8]; ΔadeN, AdeIJK overexpressed)?
A: 2 µg/mL

Q: And the “change in MIC values relative to the parent strain” value ([8]; most of the AdeR and AdeS mutants (AdeABC overexpression), KAB1544)?
A: unaffected

Q: And the In vitro activity (MIC) ([9]; Parent (AB5075))?
A: 64 µg/mL

Q: And the In vitro activity (MIC) ([9]; adeA::tn in AB5075)?
A: 32 µg/mL

Q: What about the In vitro activity (MIC) ([9]; adeB::tn in AB5075) of the same compound?
A: 32 µg/mL

Q: And the In vitro activity (MIC) ([9]; adeC::tn in AB5075)?
A: 64 µg/mL

Q: What about the In vitro activity (MIC) ([9]; adeI::tn in AB5075) of the same compound?
A: 32 µg/mL

Q: And the In vitro activity (MIC) ([9]; adeJ::tn in AB5075)?
A: 64 µg/mL

Q: And the In vitro activity (MIC) ([9]; adeK::tn in AB5075)?
A: 32 µg/mL

Q: And the In vitro activity (MIC) ([9]; adeT::tn in AB5075)?
A: 64 µg/mL

Q: What about the “MIC changes as compared to the parent strain” value ([9]; all tested efflux gene disruptions, AB5075) of the same compound?
A: ≤ 2 fold

Q: What about the “% WT” value [4] of the same compound?
A: 60%–73%

Q: And the “k inact/K i” value [4]?
A: 11 ± 2 ([2]) M^-1s^-1

Q: And the “% WT” value ([4]; listed as Sulbactam)?
A: 73.3%

Q: And the “% WT” value [5]?
A: 60%–73%

Q: What about the “k inact/K i” value [5] of the same compound?
A: 9.9 ± 0.3 ([2]) M^-1s^-1

Q: What about the “% WT” value ([5]; listed as Sulbactam) of the same compound?
A: 66%

Q: What about the “% WT” value [6] of the same compound?
A: ~ 120%

Q: And the “k inact/K i” value [6]?
A: 18 ± 1 ([2]) M^-1s^-1

Q: What about the “% WT” value ([6]; listed as Sulbactam) of the same compound?
A: 120%
